Experimental findings from US8283373B2, “Inhibitors of cytosolic phospholipase A2” (Pfizer Inc., priority 2005, dated 2012) are described below.

Assay [1] concerns CFA-induced hyperalgesia. In words: CFA-induced hyperalgesia model. It counts as in vivo, rat. Particulars: 6 hours after CFA. The source says:
The sensitivity of peripheral sensory neurons can be enhanced such that they respond to both noxious and non-noxious stimuli resulting in chronic pain (See Julius, D. et al., Nature. 2001; 413:203; Woolf, C. J., et al., Science. […]; 288:1765). Prostaglandins and leukotrienes at the site of inflammation and tissue damage are partially responsible for this potentiation of the pain response. Prostaglandins promote the phosphorylation of ion channels, increasing the excitability and lowering the pain threshold of sensory neurons. Analogously, leukotriene B4 and related arachidonate metabolites of 12-LO bind to and activate the capsaicin receptor (or VR1) ion channel on neurons that respond to heat and low pH (See Piomelli D., TRENDS in Pharmacological Sciences, January 2001; 22(1):17-29). The effect of the compound of Example 10 was measured in the CFA-induced hyperalgesia model, and lipid mediator production was measured at peripheral and central sites.
The animals were dosed with vehicle, the compound of Example 10, naproxen or celecoxib, and then CFA was immediately injected into the hind footpad. To assess hyperalgesia, pressure was applied to the left hind paw at a slow and constant rate using a digital force gauge. Measurements were taken at 0 and 6 hours. The application of the force was stopped when the animal vocalized, or struggled. Readings were taken prior to dosing and CFA injection, and repeated six hours after the CFA injection. Two independent experiments were run and the data were analyzed separately.
The paws were collected at the end of each experiment (6 hours) and the levels of PGE2, LTB4 and TXB2 were measured in the exudates.

For assay [2], the system named is primary dopaminergic neurons. In words: MPP+ exposure in dopaminergic neurons. In kind it is cell-based, rat. The note with it: 10 μM MPP+ 60 minutes, control 100, MPP+ alone 56.6. The protocol:
Primary dopaminergic neurons were isolated from E15 rat embryos as described in Pong K., et al., (1997) J. Neurochem. 69 986-994. Briefly, the ventral mesencephalon was isolated and tissue was pooled in ice-cold phosphate buffer saline (PBS) without Ca^2+ and Mg^2+. The tissue was transferred to an enzymatic dissociation media containing 20 IU/ml papain in Earle's balanced salt solution (Worthington Biochemical, Freehold, N.J.) and incubated for 30 minutes at 37° C. After enzymatic dissociation, the papain solution was aspirated and the tissue mechanically triturated with a fire-polished Pasteur pipette in complete media [Neurobasal Medium with B-27 supplement (Gibco, Grand Island, N.Y.), penicillin/streptomycin, aphidicolin, glutamate] containing 2,000 IU/ml DNase and 10 mg/ml ovomucoid protease inhibitor. Single-cell suspensions in complete media were plated on pre-coated poly-L-ornithine/laminin 24-well plates (Becton-Dickinson, Bedford, Mass.) at a density of 5.0×10^5 cells/well. Cells were maintained for one week prior to experimentation.
Cultures were exposed to 10 μM MPP^+ for 60 minutes. After the exposure, fresh media was exchanged and fresh compound was added. Dopaminergic neuron viability was determined 24 hours later by measuring ^3H-dopamine uptake as described in Pong et al., 1997, supra.

Assay [3] concerns experimental autoimmune encephalomyelitis (EAE). In words: Experimental autoimmune encephalomyelitis (EAE) model of multiple sclerosis. It counts as in vivo, mouse. Here is the method:
Six groups of B6 mice were immunized with MOG/CFA and injected with pertussis toxin to induce experimental autoimmune encephalomyelitis (EAE), an animal model of Multiple sclerosis. Three groups of mice were treated with vehicle, 4-{3-[1-benzhydryl-5-chloro-2-(2-{[(2,6-dimethylbenzyl)sulfonyl]amino}ethyl)-1H-indol-3-yl]propyl}benzoic acid (Compound A), or 4-{2-[1-benzhydryl-5-chloro-2-(2-{[(3,4-dichlorobenzyl)sulfonyl]amino}-ethyl)-1H-indol-3-yl]ethoxy}benzoic acid (Compound B) from the day of Immunization (orally, 100 mg/kg, twice/day). Another three groups of mice were treated with vehicle, Compound A or Compound B starting on the day of EAE onset (day 15) (orally, 100 mg/kg, twice/day). […] The results are shown in the Table below, wherein mean clinical score is a mean of clinical evaluation of each animal for that particular day.
Animals are Scored as Follows:
• 0—no clinical signs of EAE (no paralysis) • 1—paralysis of tail • 2—paralysis of tail and partial hind leg paralysis • 3—paralysis of tail and complete hind leg paralysis • 4—paralysis of tail, complete hind leg paralysis and a partial front leg paralysis • 5—moribund animal (all four limbs paralyzed, lack of responsiveness, these mice were immediately euthanized).
In addition, the compounds of Examples 14 and 25 were also found to be efficacious in the mouse experimental autoimmune encephalomyelitis (EAE) model of multiple sclerosis. As shown by the data in the Table below, these compounds led to a delayed onset of disease and reduced severity of disease when administered orally in doses as low as 2.5 mg/kg.

As to `COc1ccc2cc([C@H](C)C(=O)O)ccc2c1` [naproxen, reference compound], in assay [1], the “LTB4 levels in paw exudates” value was “increased” and the “TXB2 levels in paw exudates” value is listed as “greater than the inhibition with celecoxib”. Moreover, the “PGE2 levels in paw exudates” value in assay [1] (Example 10 at 25 mg/kg) was “significantly inhibited”.
In the case of `O=C(O)c1ccc(OCCc2c(CCNS(=O)(=O)Cc3ccc(Cl)c(Cl)c3)n(C(c3ccccc3)c3ccccc3)c3ccc(Cl)cc23)cc1` [Compound B, 4-{2-[1-benzhydryl-5-chloro-2-(2-{[(3,4-dichlorobenzyl)sulfonyl]amino}-ethyl)-1H-indol-3-yl]ethoxy}benzoic acid], the “dopaminergic neuron viability (3H-dopamine uptake), Avg.” value in assay [2] (0.3 μM) is 74; in assay [2] (1 μM) it was 71.6; in assay [2] (3 μM) it was 78.6; in assay [2] (10 μM), 83.2. In addition, the mean clinical score in assay [3] (100 mg/kg orally twice/day from EAE onset (day 15), day 11 after immunization) amounted to 0; in assay [3] (100 mg/kg orally twice/day from EAE onset (day 15), day 12 after immunization), 0; in assay [3] (100 mg/kg orally twice/day from EAE onset (day 15), day 13 after immunization) it was 0; in assay [3] (100 mg/kg orally twice/day from EAE onset (day 15), day 14 after immunization), 0; in assay [3] (100 mg/kg orally twice/day from EAE onset (day 15), day 15 after immunization), 0.10; in assay [3] (100 mg/kg orally twice/day from EAE onset (day 15), day 16 after immunization), 0.45. The mean clinical score in assay [3] (100 mg/kg orally twice/day from EAE onset (day 15), day 17 after immunization) is 0.80; in assay [3] (100 mg/kg orally twice/day from EAE onset (day 15), day 18 after immunization), 1.05; in assay [3] (100 mg/kg orally twice/day from EAE onset (day 15), day 19 after immunization), 1.10; in assay [3] (100 mg/kg orally twice/day from EAE onset (day 15), day 20 after immunization) it was 1.00; in assay [3] (100 mg/kg orally twice/day from EAE onset (day 15), day 21 after immunization) it was 1.20; in assay [3] (100 mg/kg orally twice/day from EAE onset (day 15), day 22 after immunization) it was 1.10. Moreover, the mean clinical score in assay [3] (100 mg/kg orally twice/day from EAE onset (day 15), day 23 after immunization) is 1.40; in assay [3] (100 mg/kg orally twice/day from EAE onset (day 15), day 24 after immunization), 1.35; in assay [3] (100 mg/kg orally twice/day from EAE onset (day 15), day 25 after immunization) it was 1.25; in assay [3] (100 mg/kg orally twice/day from EAE onset (day 15), day 26 after immunization), 1.40; in assay [3] (100 mg/kg orally twice/day from EAE onset (day 15), day 27 after immunization), 1.55; in assay [3] (100 mg/kg orally twice/day from day of immunization (Day 1), day 11 after immunization) it was 0. Also, the mean clinical score came to 0 in assay [3] (100 mg/kg orally twice/day from day of immunization (Day 1), day 12 after immunization); 0 in assay [3] (100 mg/kg orally twice/day from day of immunization (Day 1), day 13 after immunization); 0 in assay [3] (100 mg/kg orally twice/day from day of immunization (Day 1), day 14 after immunization); 0 in assay [3] (100 mg/kg orally twice/day from day of immunization (Day 1), day 15 after immunization); 0 in assay [3] (100 mg/kg orally twice/day from day of immunization (Day 1), day 16 after immunization); 0.06 in assay [3] (100 mg/kg orally twice/day from day of immunization (Day 1), day 17 after immunization). Further, the mean clinical score is recorded as 0.06 in assay [3] (100 mg/kg orally twice/day from day of immunization (Day 1), day 18 after immunization); 0.11 in assay [3] (100 mg/kg orally twice/day from day of immunization (Day 1), day 19 after immunization); 0.39 in assay [3] (100 mg/kg orally twice/day from day of immunization (Day 1), day 20 after immunization); 0.44 in assay [3] (100 mg/kg orally twice/day from day of immunization (Day 1), day 21 after immunization); 0.50 in assay [3] (100 mg/kg orally twice/day from day of immunization (Day 1), day 22 after immunization); 0.67 in assay [3] (100 mg/kg orally twice/day from day of immunization (Day 1), day 23 after immunization). For the same molecule, the mean clinical score in assay [3] (100 mg/kg orally twice/day from day of immunization (Day 1), day 24 after immunization) is 0.56; in assay [3] (100 mg/kg orally twice/day from day of immunization (Day 1), day 25 after immunization) it was 0.56; in assay [3] (100 mg/kg orally twice/day from day of immunization (Day 1), day 26 after immunization), 0.56; in assay [3] (100 mg/kg orally twice/day from day of immunization (Day 1), day 27 after immunization) it was 0.72. In addition, the “prevention of EAE / reduction of clinical severity” value in assay [3] (administered from the time of immunization, or in mice with or close to EAE) is “can prevent EAE”.
